Measured values reported in US4794125A, “Compounds having an immunizing activity” (CL Pharma AG, priority 1984, dated 1988).

System: delayed-type hypersensitivity
Assay: DTH test (delayed-type hypersensitivity in mice), topical sensitization with oxazolone
Type: in vivo
Details: dose 1.0 mg/kg; OF-1 mice; topical sensitization with ethanol oxazolone solution
Protocol: The compounds prepared in accordance with the invention were investigated using the DTH test (delayed-type hypersensitivity in mice) according to Dietrich, F. M. & Hess, R.: Hypersensitivity in mice.
The new compounds (2,6-bis-MAA=2,6-bis-/(methylamino)-acetylamino/-anthraquinone), CS-A=cyclosporin A, were tested in vivo in OF-1 mice by topical sensitization with antigen (ethanol oxazolone solution). The decrease in the inflammatory response versus untreated animals is expressed as % inhibition.

`CNCC(=O)Nc1ccc2c(c1)C(=O)c1ccc(NC(=O)CNC)cc1C2=O` [2,6-bis-MAA, 2,6-bis-(methylamino)-acetylamino-anthraquinone] was tested, and the “% Inhibition (decrease in the inflammatory response versus untreated animals)” value was 35%.
